Test results as given in US20260216348A1, “IRAK DEGRADATION AGENT AND USE THEREOF” (Increland, priority 2023, published 2026).
Read-outs that look alike come from different tables or passages of the source.

Columns and labels:
[1] = system: LPS/IL-1β-induced IL-6 secretion in human peripheral blood mononuclear cells (PBMCs); assay: Inhibition of LPS/IL-1β-induced IL-6 secretion in human PBMCs (IL-6 ELISA); type: cell-based; settings: PBMC, LPS 10 ng/mL + IL-1β 20 ng/mL, 24 h pre-incubation, 20 h stimulation
Procedure, shortened: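 IC50 values come from fitted curves of IL-6 levels, determined by ELISA (OD450, standard curve) in supernatants diluted 200-fold. Human PBMCs received 5-fold serial compound dilutions (top 1 μM) for 24 h before a 20 h challenge with final 10 ng/mL LPS and 20 ng/mL IL-1β, 37 °C, 5% CO2.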

[2] = Pharmacokinetic experiment on SD rats (iv and intragastric); type: in vivo; settings: Sprague-Dawley, rat, plasma; for Cmax: read-out: Peak plasma concentration Cmax
Procedure: Pharmacokinetic experiment on SD rats: in this experiment, two administration modes: oral intragastric administration and tail vein injection were selected. Oral administration was performed at a dose of 5 mg/kg using the compounds of the present disclosure. The administration volume was 10 mL/kg. Prior to use, an appropriate amount of the drug was accurately weighed and first dissolved in dimethyl sulfoxide (DMSO). An appropriate amount of Solutol and H2O were then added in sequence at a final volume ratio of 5% DMSO, 10% Solutol and 85% H2O. The mixture was sonicated and vortexed to homogeneity to prepare a clear drug solution with a concentration of 0.5 mg/mL. Intravenous administration was performed at a dose of 1 mg/kg using the compounds of the present disclosure. The administration volume was 10 mL/kg. Prior to use, an appropriate amount of each drug was accurately weighed separately, followed by the sequential addition of a suitable volume of PEG 400 and Saline at a final volume ratio of 20% PEG 400 to 80% Saline. The mixture was sonicated and vortexed to homogeneity to prepare a clear drug solution with a concentration of 0.1 mg/mL.
6 SD rats, each with body weight of 180-220 g, were randomly grouped into 2 groups. The animals were fasted overnight with free access to water. For the first group, intragastric administration was performed, and 200 μL of blood was collected from the orbital venous plexus into anticoagulant tubes at 15 min, 30 min, 1 h, 2 h, 4 h, 6 h, 8 h and 24 h post-administration, respectively. Within one hour, the blood samples were centrifuged at 10000 rpm for 20 m at 4° C. (preserved on an ice box prior to centrifugation). The upper supernatant, i.e., plasma, was harvested and stored in a refrigerator at −20° C. for subsequent LC-MS/MS analysis. For the second group, intravenous administration was conducted, and 200 μL of blood was collected from the orbital venous plexus into anticoagulant tubes at 5 min, 15 min, 30 min, 1 h, 2 h, 4 h, 8 h and 24 h post-administration, respectively. Within one hour, the blood samples were centrifuged at 10000 rpm for 20 min at […] (preserved on an ice box prior to centrifugation). The upper supernatant, i.e., plasma, was harvested and stored in a refrigerator at −20° C. for subsequent LC-MS/MS analysis.

IMQ psoriasis model = assay: IMQ (imiquimod)-induced psoriasis model; type: in vivo, BALB/c mice; settings: QD, Mean ± SD, n = 7; for PASI Score d 6: Model 8.85 ± 1.66; for ΔSkin Thickness Change (μm) d 6: Model 80.95 ± 6.16
Procedure: Male BALB/c mice, aged 6-8 weeks, were randomly divided into 9 groups after 1 week of acclimatization: blank control group, imiquimod model group (IMQ group, corresponding to the model groups in FIGS. 1 and 2), clobetasol propionate cream group (CLO group), TYKI (BMS-986165) group, IRAK4 protein degrader KT-474 (from patent WO2020113233) group (100 mg/kg), and the compound of the present disclosure (at an appropriate dose), with 6-7 mice in each group. One day before modeling, the hair on the backs of the mice was removed with depilatory cream, with a depilated area of 2×2 cm^2. On the day of modeling, IMQ cream was used for modeling, and the corresponding drugs were administered intragastrically for treatment. The compound of the present disclosure (at an appropriate dose) was administered intragastrically once daily, and IMQ cream was applied to the hairless area on the back and left ear of mice 2 h after the first administration. […] The blank group and the IMQ group were administered with vehicle intragastrically twice daily (in the morning and evening), with an 8-h interval between the two intragastric administrations. At 2 h after the first intragastric administration, vaseline and IMQ cream were applied topically to the depilated back and ears of the mice, respectively. The dosage of IMQ cream administered to the depilated area on the back and the left ear was 80 mg and 10 mg, respectively, and the mice in each group were administered the cream for 5 consecutive days.
Reference was made to the Psoriasis Area and Severity Index (PASI) scoring criteria. The psoriasis, erythema, and thickness of skin lesions on the back were scored from 0 to 4 every morning from day 1 of modeling, with the scoring criteria as shown in Table 28. The 3 were added up to obtain a total score, i.e., a total PASI score. The ear thickness of the left ear of the mouse was measured using a digital vernier caliper three times every morning from day 1 of modeling, to obtain a mean value.

[3] = system: DSS-induced enteritis model; assay: DSS-induced enteritis (colitis) model; type: in vivo, mice; settings: po, QD, Model 10.33 ± 1.11, Mean ± SD, n = 7
Source text: The experimental mice were pre-acclimatized in the animal facility for one week; at the beginning of the experiment, the mice were given medication intragastrically daily according to their body weight. After the completion of intragastric administration in each group, mice had direct access to water bottles for free drinking. The blank group received normal water, while the other groups received pre-prepared DSS water. Each afternoon, the mice's abdomens were massaged to stimulate defecation, and one fecal pellet was collected onto a white porcelain plate. Fecal consistency was judged and recorded according to Table 30. The fecal occult blood qualitative test kit (Yuanye Biotechnology, #R24187-300T) was used to test for occult blood in feces and the results were interpreted according to Table 31.

Compound | AUC ([2]; iv, 1.00 mg/kg) [ng·h/mL] | AUC(0-inf) ([2]; iv, 1.00 mg/kg) [ng·h/mL] | Cmax ([2]; iv, 1.00 mg/kg) [ng/mL] | bioavailability ([2]; po, ig 5.00 mg/kg vs iv 1.00 mg/kg, read-out: Oral bioavailability Fobs) [%] | AUC ([2]; po, ig, 5.00 mg/kg) [ng·h/mL] | AUC(0-inf) ([2]; po, ig, 5.00 mg/kg) [ng·h/mL] | Cmax ([2]; po, ig, 5.00 mg/kg) [ng/mL] | IC50 [1] [nM] | PASI Score d 6 (IMQ psoriasis model; 3 mg/kg) | ΔSkin Thickness Change (μm) d 6 (IMQ psoriasis model; 3 mg/kg) [μm] | PASI Score d 6 (IMQ psoriasis model; 10 mg/kg) | ΔSkin Thickness Change (μm) d 6 (IMQ psoriasis model; 10 mg/kg) [μm] | PASI Score d 6 (IMQ psoriasis model; 30 mg/kg) | ΔSkin Thickness Change (μm) d 6 (IMQ psoriasis model; 30 mg/kg) [μm] | DAI Score d 8 ([3]; 3 mpk) | DAI Score d 8 ([3]; 10 mpk) | DAI Score d 8 ([3]; 30 mpk)
CN(C)c1cc2nn([C@H]3CC[C@H](CN4CC[C@@H](n5cc6cc(C7CCC(=O)NC7=O)c(F)cc6n5)[C@@H](F)C4)CC3)cc2cc1NC(=O)c1cnn2cccnc12 (stereo partly drawn) [TM-135] | 1170 ± 260 | 1220 ± 333 | 790 ± 65.9 | 33.2 | 1900 ± 565 | 2030 ± 529 | 433 ± 198 | 2.66 |  |  |  |  |  |  |  |  | 
CN(C)c1cc2nn([C@H]3CC[C@H](CN4CCC(n5cc6c(F)cc(N7CCC(=O)NC7=O)cc6n5)CC4)CC3)cc2cc1NC(=O)c1cnn2cccnc12 [TM-174] | 1480 ± 167 | 1700 ± 254 | 272 ± 34.5 |  |  |  |  | 1.49 | 6.69 ± 1.07 | 58.10 ± 17.31 | 7.31 ± 1.87 | 59.29 ± 18.23 | 4.38 ± 1.24 | 43.81 ± 16.66 | 3.57 ± 2.26 | 2.71 ± 1.39 | 2.71 ± 0.70
CN(C)c1cc2nn([C@H]3CC[C@H](CN4C[C@@H](n5cc6cc(N7CCC(=O)NC7=O)ccc6n5)[C@@H](F)C4)CC3)cc2cc1NC(=O)c1cnn2cccnc12 [TM-205] |  |  |  |  |  |  |  | 2.47 | 7.29 ± 1.99 | 65.71 ± 10.23 | 6.75 ± 1.28 | 52.62 ± 9.59 | 4.84 ± 0.80 | 53.10 ± 12.95 | 4.86 ± 1.55 | 3.29 ± 1.67 | 2.71 ± 0.70
CN(C)c1cc2nn([C@H]3CC[C@H](CN4C[C@@H](F)[C@H](n5cc6cc(C7CCC(=O)NC7=O)ccc6n5)C4)CC3)cc2cc1NC(=O)c1cnn2cccnc12 (stereo partly drawn) [TM-244] | 2010 ± 361 | 2440 ± 585 | 784 ± 126 |  |  |  |  | 4.95 |  |  |  |  |  |  |  |  | 

More lines, main results first:

AUC ([2]; iv, 1.00 mg/kg) [ng·h/mL] | AUC(0-inf) ([2]; iv, 1.00 mg/kg) [ng·h/mL] | Cmax ([2]; iv, 1.00 mg/kg) [ng/mL] | bioavailability ([2]; po, ig 5.00 mg/kg vs iv 1.00 mg/kg, read-out: Oral bioavailability Fobs) [%] | AUC ([2]; po, ig, 5.00 mg/kg) [ng·h/mL] | AUC(0-inf) ([2]; po, ig, 5.00 mg/kg) [ng·h/mL] | Cmax ([2]; po, ig, 5.00 mg/kg) [ng/mL] | Compound | IC50 [1] [nM] | PASI Score d 6 (IMQ psoriasis model; 3 mg/kg) | ΔSkin Thickness Change (μm) d 6 (IMQ psoriasis model; 3 mg/kg) [μm] | PASI Score d 6 (IMQ psoriasis model; 10 mg/kg) | ΔSkin Thickness Change (μm) d 6 (IMQ psoriasis model; 10 mg/kg) [μm] | PASI Score d 6 (IMQ psoriasis model; 30 mg/kg) | ΔSkin Thickness Change (μm) d 6 (IMQ psoriasis model; 30 mg/kg) [μm] | DAI Score d 8 ([3]; 3 mpk) | DAI Score d 8 ([3]; 10 mpk) | DAI Score d 8 ([3]; 30 mpk)
2630 ± 172 | 2670 ± 175 | 652 ± 32 |  |  |  |  | CN(C)c1cc2nn([C@H]3CC[C@H](CN4C[C@@H](F)[C@@H](n5cc6cc(C7CCC(=O)NC7=O)c(F)cc6n5)C4)CC3)cc2cc1NC(=O)c1cnn2cccnc12 (stereo partly drawn) [TM-240] | 1.09 |  |  |  |  |  |  |  |  | 
4140 ± 1290 | 4220 ± 1300 | 920 ± 124 |  |  |  |  | CN(C)c1cc2nn([C@H]3CC[C@H](CN4C[C@@H](n5cc6cc(C7CCC(=O)NC7=O)c(F)cc6n5)[C@@H](F)C4)CC3)cc2cc1NC(=O)c1cnn2cccnc12 (stereo partly drawn) [TM-241] | 6.35 |  |  |  |  |  |  |  |  | 
2910 ± 62.8 | 2980 ± 114 | 554 ± 60.7 |  |  |  |  | CN(C)c1cc2nn([C@H]3CC[C@H](CN4C[C@@H](F)[C@H](n5cc6cc(C7CCC(=O)NC7=O)c(F)cc6n5)C4)CC3)cc2cc1NC(=O)c1cnn2cccnc12 (stereo partly drawn) [TM-245] | 2.58 |  |  |  |  |  |  |  |  | 
2280 ± 190 | 2400 ± 354 | 613 ± 39.8 |  |  |  |  | CN(C)c1cc2nn([C@H]3CC[C@H](CN4C[C@H](F)[C@@H](n5cc6cc(C7CCC(=O)NC7=O)c(F)cc6n5)C4)CC3)cc2cc1NC(=O)c1cnn2cccnc12 (stereo partly drawn) [TM-249] | 3.08 |  |  |  |  |  |  |  |  | 
